Structures are written as SMILES. Read-outs that look alike come from different tables or passages of the source.

The test system of data set [1] is guinea pig platelet. Kind of data set: In vitro guinea pig platelet aggregation induced by ADP. The class given is cell-based. The conditions noted are these: guinea pig platelets. The source says:
Moreover, compounds (I) have an effective antiag gregating activity on the in vitro guinea pig platelet aggregation induced by ADP.

Data set [2] concerns reserpinized rat. The experiment in a line: Antihyperprolactinemic activity in the reserpinized rat. The class given is in vivo. The following applies: for Plasmatic prolactin % reduction: reserpinized rat; for antihyperprolactinemic activity: result in words. From the text:
All compounds (I) have a marked antihyperprolactinemic activity in the reserpinized rat.

Data set [3] has as its system spontaneously hypertensive rats (SHR). The experiment in a line: Antihypertensive activity on spontaneously hypertensive rats (SHR). The data set is classed as in vivo, rat. The conditions noted are these: for Mean arterial pressure % reduction: SHR; for hypotensive activity: result in words.
The subject of data set [4] is mouse. The experiment in a line: Locomotor activity in the mouse. The data set is classed as in vivo.
Data set [5] deals with isolated rat uterus. From the text:
All the compounds of the invention have a marked antiserotonin activity in the in vitro test on isolated rat uterus.

For data set [6], the system named is rat. The experiment in a line: Stereotypy test in the rat. The class given is in vivo. The conditions noted are these: for Mean score: stereotypy, rat; for activity on C.N.S.: result in words.
Data set [7] deals with rat seminal vesicle. Kind of data set: Adrenolytic activity, in vitro rat seminal vesicle test. The source says: Most of the compounds of formula (I) have a marked adrenolytic activity in the in vitro rat seminal vesicle test.
The test system of data set [8] is mouse. Kind of data set: Acute toxicity by the oral route in the mouse. The data set is classed as in vivo.
The mark [9] stands for this setting: After 1 hour (dose 0.25 mg/kg os).
Setting [10] is: After 2 hours (dose 0.50 mg/kg os).
The mark [11] stands for this setting: antiserotonin activity, in vitro isolated rat uterus.

For `CC(C)C[C@H]1C(=O)N2CCC[C@H]2[C@]2(O)O[C@](NC(=O)[C@@H]3C[C@@H]4c5cccc6[nH]cc(c56)C[C@H]4N(C)C3)(C(C)C)C(=O)N12` [Dihydro-α-ergocryptine, reference compound], the “Platelet aggregation % reduction” value in data set [1] (Dose 20 mcg/ml) stood at 25%. The “Plasmatic prolactin % reduction” value in data set [2] (setting [9]) was found to be 52.4%; in data set [2] (setting [10]) it was 66.1%. Also, the “Mean arterial pressure % reduction” value in data set [3] (dose = 1 mg/kg i.p.) was 18.3%; in data set [3] (dose = 3 mg/kg i.p.) it was 29.0%. The “% inhibition” value in data set [4] (dose 20 mg/kg i.p.) was 74.3%. Further, the ED₅₀ in data set [5] (setting [11]) was found to be 0.035 µg/mL.
Consider `CC(C)[C@@]1(NC(=O)[C@@H]2C[C@@H]3c4cccc5[nH]cc(c45)C[C@H]3N(C)C2)O[C@@]2(O)[C@@H]3CCCN3C(=O)[C@H](Cc3ccccc3)N2C1=O` [Dihydroergocristine, reference compound], for which the “Platelet aggregation % reduction” value in data set [1] (Dose 40 mcg/ml) came to 25%. Moreover, the “Plasmatic prolactin % reduction” value in data set [2] (setting [9]) stood at 47.4%. In addition, in data set [6] (dose 10 mg/kg i.p.), the Mean score is on record as 2.37. The “Mean arterial pressure % reduction” value in data set [3] (dose = 1 mg/kg i.p.) is 18.1%; in data set [3] (dose = 3 mg/kg i.p.) it was 32.0%. The “% inhibition” value in data set [4] (dose 10 mg/kg i.p.) amounted to 47.7%. In addition, the ED₅₀ in data set [5] (setting [11]) worked out at 0.007 µg/mL.
For the molecule `CC[C@@H](CO)NC(=O)[C@@H]1C=C2c3cccc4[nH]cc(c34)C[C@H]2N(C)C1` [Methylergometrine, reference compound], the entries for the “Mean arterial pressure % reduction” value in data set [3] (dose = 1 mg/kg i.p.) and in data set [3] (dose = 3 mg/kg i.p.) were 15.7% and 29.4%, respectively.
For `CC[C@@H](CO)NC(=O)[C@@H]1C=C2c3cccc4c3c(cn4C)C[C@H]2N(C)C1` [Methysergid, reference compound], the ED₅₀ in data set [7] was 2.48 µg/mL.
Regarding `COC(=O)[C@@H]1CCCN1C(=O)[C@@H]1C=C2c3cccc4[nH]cc(c34)C[C@H]2N(C)C1.O=C(O)/C=C\C(=O)O` [P 1409, N-(D-Lysergyl)-L-proline methyl ester maleate], the ED₅₀ in data set [7] came to 1.02 µg/mL; in data set [5], 0.010 µg/mL. The “activity on C.N.S.” value in data set [6] was “marked activity on C.N.S”. This molecule also had a Mean score in data set [6] (dose 1.25 mg/kg i.p.) of 1.00. Moreover, the “Mean arterial pressure % reduction” value in data set [3] (dose = 1 mg/kg i.p.) came out at 22.1%; in data set [3] (dose = 3 mg/kg i.p.) it was 27.5%. Also, in data set [3], the hypotensive activity result is “high hypotensive activity”. The “% inhibition” value in data set [4] (dose 2.5 mg/kg i.p.) stood at 69.5%. For the same molecule, in data set [5], the antiserotonin activity result is recorded as “remarkable antiserotonin activity”.
Consider `CN1C[C@H](C(=O)N2CCC[C@H]2CO)C=C2c3cccc4[nH]cc(c34)C[C@H]21.O=C(O)/C=C\C(=O)O` [P 1410], for which, in data set [2] (setting [9]), the “Plasmatic prolactin % reduction” value is listed as 65.7%. Besides, the antihyperprolactinemic activity result in data set [2] is “interesting antihyperprolactinemic activity”. Further, the “activity on C.N.S.” value in data set [6] is “marked activity on C.N.S”. In addition, the Mean score in data set [6] (dose 10 mg/kg i.p.) came to 2.62. Also, the “Mean arterial pressure % reduction” value in data set [3] (dose = 1 mg/kg i.p.) was 17.8%. In addition, the hypotensive activity result in data set [3] is “high hypotensive activity”. For the same molecule, the ED₅₀ in data set [5] (setting [11]) came out at 0.059 µg/mL. Further, in data set [5] (result in words), the antiserotonin activity entry was “remarkable antiserotonin activity”.
In the case of `CN1C[C@H](C(=O)N2CCC[C@H]2C(=O)O)C=C2c3cccc4[nH]cc(c34)C[C@H]21` [P 1411], in data set [4] (dose 20 mg/kg i.p.), the “% inhibition” value is 80.9%. In data set [5] (setting [11]), this molecule registered an ED₅₀ of 0.370 µg/mL.
In the case of `COC(=O)[C@@H]1C[C@@H](O)CN1C(=O)[C@@H]1C=C2c3cccc4[nH]cc(c34)C[C@H]2N(C)C1.O=C(O)/C=C\C(=O)O` [P 1413, N-(D-Lysergyl)-4-hydroxy-L-proline methyl ester maleate], in data set [5], the ED₅₀ was 0.004 µg/mL and the antiserotonin activity entry is reported as “remarkable antiserotonin activity”.
Turning to `CN1C[C@H](C(=O)N2C[C@H](O)C[C@H]2CO)C=C2c3cccc4[nH]cc(c34)C[C@H]21` [P 1414, N-(D-Lysergyl)-4-hydroxy-L-prolinol], the “Mean arterial pressure % reduction” value in data set [3] (dose = 1 mg/kg i.p.) was 17.9%; in data set [3] (dose = 3 mg/kg i.p.) it was 31.2%. In data set [3], the hypotensive activity entry is “high hypotensive activity”. Moreover, the ED₅₀ in data set [5] (setting [11]) came out at 0.007 µg/mL.
Take `CN1C[C@H](C(=O)N2CC(O)C[C@H]2CO)C=C2c3cccc4[nH]c(Br)c(c34)C[C@H]21` (stereo partly shown) [P 1415]: the ED₅₀ in data set [7] is 0.95 µg/mL; in data set [5] (setting [11]), 0.015 µg/mL. In addition, the antiserotonin activity entry in data set [5] (result in words) is “remarkable antiserotonin activity”.
For `CN1C[C@H](C(=O)N2CC(O)C[C@H]2CO)C=C2c3cccc4c3c(cn4C)C[C@H]21.Cl` (stereo partly shown) [P 1417], the ED₅₀ stood at 3.52 µg/mL in data set [7] and 0.001 µg/mL in data set [5] (setting [11]). For the same molecule, the antiserotonin activity result in data set [5] (result in words) is on record as “remarkable antiserotonin activity”.
For `CN1C[C@H](C(=O)N2CCC[C@H]2C#N)C=C2c3cccc4[nH]cc(c34)C[C@H]21.Cl` [P 1419], the ED₅₀ was found to be 0.22 µg/mL in data set [7] and 0.073 µg/mL in data set [5] (setting [11]). Besides, the acute toxicity entry in data set [8] is “slightly more toxic”. Also, the results for the “Plasmatic prolactin % reduction” value in data set [2] (setting [9]) and in data set [2] (setting [10]) were 68.4% and 84.1%, respectively. For the same molecule, in data set [2], the antihyperprolactinemic activity result is “interesting antihyperprolactinemic activity”. Also, in data set [6], the “activity on C.N.S.” value is “marked activity on C.N.S”. The Mean score in data set [6] (dose 0.625 mg/kg i.p.) was found to be 2.50. Further, in data set [4] (dose 0.625 mg/kg i.p.), the “% inhibition” value was 63.2%.
As to `CN1C[C@H](C(=O)N2CCC[C@H]2C#N)C=C2c3cccc4c3c(cn4C)C[C@H]21.Cl` [P 1420], the ED₅₀ was 0.50 µg/mL in data set [7] and 0.003 µg/mL in data set [5] (setting [11]). The acute toxicity result in data set [8] is “slightly more toxic”. Further, in data set [2] (setting [9]), the “Plasmatic prolactin % reduction” value stood at 50.1%. Further, the antihyperprolactinemic activity result in data set [2] is given as “interesting antihyperprolactinemic activity”. For the same molecule, the “activity on C.N.S.” value in data set [6] was “marked activity on C.N.S”. For the same molecule, the Mean score in data set [6] (dose 2.5 mg/kg i.p.) is 2.17. In addition, the “% inhibition” value in data set [4] (dose 5 mg/kg i.p.) is 82.7%. Also, the antiserotonin activity result in data set [5] (result in words) is recorded as “remarkable antiserotonin activity”.
`CN1C[C@H](CN2CCC[C@H]2CO)C=C2c3cccc4[nH]cc(c34)C[C@H]21.Cl.Cl` [P 1421]: the figures for the ED₅₀ in data set [7] and in data set [5] (setting [11]) were 2.82 µg/mL and 0.011 µg/mL, respectively. The “Platelet aggregation % reduction” value in data set [1] (Dose 40 mcg/ml) is 25%. In data set [5] (result in words), the antiserotonin activity entry is reported as “remarkable antiserotonin activity”.
For the molecule `CN1CC(C(=O)N2CC(O)CC2CO)CC2c3cccc4[nH]cc(c34)CC21` (stereo not shown) [P 1422], the figures for the ED₅₀ in data set [7] and in data set [5] (setting [11]) were 2.89 µg/mL and 0.014 µg/mL, respectively. In data set [2] (setting [9]), the “Plasmatic prolactin % reduction” value is listed as 77.1%. In addition, in data set [2], the antihyperprolactinemic activity result is recorded as “interesting antihyperprolactinemic activity”. The “Mean arterial pressure % reduction” value in data set [3] (dose = 1 mg/kg i.p.) is 18.8%; in data set [3] (dose = 3 mg/kg i.p.), 40.8%. The hypotensive activity result in data set [3] was “high hypotensive activity”. Further, the “% inhibition” value in data set [4] (dose 20 mg/kg i.p.) came to 79.8%. For the same molecule, the antiserotonin activity result in data set [5] (result in words) is on record as “remarkable antiserotonin activity”.
As to `CC(C)C[C@H]1C(=O)N2CCC[C@H]2[C@]2(O)O[C@](NC(=O)[C@@H]3C=C4c5cccc6[nH]c(Br)c(c56)C[C@H]4N(C)C3)(C(C)C)C(=O)N12` [α-Bromocryptine, reference compound], in data set [1] (Dose 80 mcg/ml), the “Platelet aggregation % reduction” value is on record as 25%. The figures for the “Plasmatic prolactin % reduction” value in data set [2] (setting [9]) and in data set [2] (setting [10]) were 78.2% and 80.9%, respectively. Also, the Mean score in data set [6] (dose 10 mg/kg i.p.) was found to be 2.25. Moreover, the “% inhibition” value in data set [4] (dose 10 mg/kg i.p.) is 78.7%. The same molecule showed an ED₅₀ in data set [5] (setting [11]) of 0.470 µg/mL.

The values are drawn from patent EP0411495A2, “Ergoline derivatives of proline and related compounds having dopaminergic activity” (priority 1989, dated 1991).
